pIC50: −log10 of the molar value.

The assay has as its system Endogenous Huntingtin Protein. The assay can be described thus: Endogenous Huntingtin Protein Assay (ELISA-based MSD electrochemiluminescence). Format: cell-based. To be noted: Table 1. In a few lines: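 Sandwich MSD electrochemiluminescence immunoassay. Capture used MW1 (expanded polyglutamine) or MAB2166 antibody coated at 1 μg/mL overnight at 4 °C. Samples were bound overnight at 4 °C, then a rabbit monoclonal detection antibody and SULFO-TAG anti-rabbit, each at 0.25 μg/mL, were applied for 1 h at room temperature.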
(In general: In an ELISA, binding on a coated surface is turned into a signal by an enzyme label.)
Broadly, the pIC50 is the negative decadic logarithm of the IC50, by convention in mol/L. With `CN(c1nc2ccc(-c3ccc4[nH]ncc4c3)cc2s1)C1CC(C)(C)NC(C)(C)C1` [Compound 34, 6-(1H-indazol-5-yl)-N-methyl-N-(2,2,6,6-tetramethylpiperidin-4-yl)-1,3-benzothiazol-2-amine], the pIC50 is 6.30 to 7.00.

With `Cc1cn2nc(-c3cc(F)c4nc(N5CCC(O)CC5)sc4c3)cc(C)c2n1` [Compound 143, 1-[6-(2,8-dimethylimidazo[1,2-b]pyridazin-6-yl)-4-fluoro-1,3-benzothiazol-2-yl]piperidin-4-ol], the pIC50 is 6.30 to 7.00.

`Cn1cc2cc(-c3cc4sc(NC5CC(C)(C)NC(C)(C)C5)nc4cn3)cc(F)c2n1` [Compound 232, 6-(7-fluoro-2-methyl-2H-indazol-5-yl)-N-(2,2,6,6-tetramethylpiperidin-4-yl)[1,3]thiazolo[4,5-c]pyridin-2-amine]: the pIC50 is not below 7.00.

For `CN(c1nc2cnc(-c3ccc4nn(C)cc4c3)cc2s1)C1CC2CCCC(C1)N2` (centres unmarked) [Compound 262, N-(9-azabicyclo[3.3.1]non-3-yl)-N-methyl-6-(2-methyl-2H-indazol-5-yl)[1,3]thiazolo[4,5-c]pyridin-2-amine], the pIC50 is not below 7.00.

For `CN(c1nc2ccc(-c3ccc4nn(C)cc4c3)cc2s1)C1CC(C)(C)NC(C)(C)C1` [Compound 20, N-methyl-6-(2-methyl-2H-indazol-5-yl)-N-(2,2,6,6-tetramethylpiperidin-4-yl)-1,3-benzothiazol-2-amine], the pIC50 was not below 7.00.

For the molecule `Cc1cn2nc(-c3cc(F)c4nc(C5CCNCC5)sc4c3)cc(Oc3ccccc3)c2n1` [Compound 195, 6-[4-fluoro-2-(piperidin-4-yl)-1,3-benzothiazol-6-yl]-2-methyl-8-phenoxyimidazo[1,2-b]pyridazine], the pIC50 is not below 7.00.

Molecule `CN(c1nc2nnc(-c3ccc(-c4cn[nH]c4)cc3O)cc2s1)[C@@H]1CCNC[C@H]1F` [Compound 365, 2-(6-{[(3R,4R)-3-fluoropiperidin-4-yl](methyl)amino}[1,3]thiazolo[4,5-c]pyridazin-3-yl)-5-(1H-pyrazol-4-yl)phenol] had a pIC50 of 6.30 to 7.00.

Molecule `CN(c1nc2cnc(-c3cc(C#N)c4nn(C)cc4c3)cc2s1)C1CC2CCCC(C1)N2C` (centres unmarked) [Compound 272, 2-methyl-5-{2-[methyl(9-methyl-9-azabicyclo[3.3.1]non-3-yl)amino][1,3]thiazolo[4,5-c]pyridin-6-yl}-2H-indazole-7-carbonitrile] gave a negative-log IC50 (pIC50) of 6.30 to 7.00.

`Cc1nc2ccc(-c3cc4sc(N(C)C5CC(C)(C)NC(C)(C)C5)nc4cn3)cn2n1` [Compound 136, N-methyl-6-(2-methyl[1,2,4]triazolo[1,5-a]pyridin-6-yl)-N-(2,2,6,6-tetramethylpiperidin-4-yl)[1,3]thiazolo[4,5-c]pyridin-2-amine] showed a pIC50 of 6.30 to 7.00.

Take `Cc1cc(-c2cnc3nc(N(C)C4CC(C)(C)NC(C)(C)C4)sc3n2)cc2cn(C)nc12` [Compound 131, 6-(2,7-dimethyl-2H-indazol-5-yl)-N-methyl-N-(2,2,6,6-tetramethylpiperidin-4-yl)[1,3]thiazolo[4,5-b]pyrazin-2-amine]: the pIC50 was not below 7.00.

In turn, `Cc1cn2cc(-c3cc4sc(OC5CC(C)(C)NC(C)(C)C5)nc4cn3)cc(F)c2n1` [Compound 310, 6-(8-fluoro-2-methylimidazo[1,2-a]pyridin-6-yl)-2-[(2,2,6,6-tetramethylpiperidin-4-yl)oxy][1,3]thiazolo[4,5-c]pyridine] gave a pIC50 not below 7.00.

`Cc1cn2cc(-c3cc4sc(N(C)C5CC(C)(C)NC(C)(C)C5)nc4cn3)cc(F)c2n1` [Compound 147, 6-(8-fluoro-2-methylimidazo[1,2-a]pyridin-6-yl)-N-methyl-N-(2,2,6,6-tetramethylpiperidin-4-yl)[1,3]thiazolo[4,5-c]pyridin-2-amine] gave a pIC50 not below 7.00.

`Cc1cc(-c2ccc3nc(C4=CCNCC4)sc3c2)cc2cn(C)nc12` [Compound 18, 6-(2,7-dimethyl-2H-indazol-5-yl)-2-(1,2,3,6-tetrahydropyridin-4-yl)-1,3-benzothiazole]: the pIC50 was 6.30 to 7.00.

The molecule `Cc1cn2nc(-c3cc(F)c4nc(N(C)C5CCN[C@@H](C)C5)sc4c3)cc(C)c2n1` (stereo partly drawn) [Compound 165, 6-(2,8-dimethylimidazo[1,2-b]pyridazin-6-yl)-4-fluoro-N-methyl-N-[(2S)-2-methylpiperidin-4-yl]-1,3-benzothiazol-2-amine] showed a pIC50 not below 7.00.

On to `Cc1cc(-c2ccc3nc(N(C)C4CCNC(C)C4)sc3c2)cc2cn(C)nc12` (centres unmarked) [Compound 66, 6-(2,7-dimethyl-2H-indazol-5-yl)-N-methyl-N-(2-methylpiperidin-4-yl)-1,3-benzothiazol-2-amine], for which the pIC50 is not below 7.00.

The molecule `Cc1nc2c(C#N)cc(-c3ncc4nc(N(C)C5CC6(C)CC[C@](C)(C5)N6)sc4n3)cc2o1` (stereo partly drawn) [Compound 290, 6-(2-{[(1R)-1,5-dimethyl-8-azabicyclo[3.2.1]octan-3-yl](methyl)amino}[1,3]thiazolo[5,4-d]pyrimidin-5-yl)-2-methyl-1,3-benzoxazole-4-carbonitrile] gave a negative-log IC50 (pIC50) not below 7.00.

In the case of `CN1CCC(Nc2nc3nnc(-c4ccc(-c5cn[nH]c5)cc4O)cc3s2)CC1` [Compound 366, 2-{6-[(1-methylpiperidin-4-yl)amino][1,3]thiazolo[4,5-c]pyridazin-3-yl}-5-(1H-pyrazol-4-yl)phenol], the pIC50 was not below 7.00.

The molecule `Cc1cn2nc(-c3cc(F)c4nc(N(C)C5CC6CCC(C5)N6)sc4c3)cc(C)c2n1` (stereo not drawn) [Compound 192, N-[(3-exo)-8-azabicyclo[3.2.1]oct-3-yl]-6-(2,8-dimethylimidazo[1,2-b]pyridazin-6-yl)-4-fluoro-N-methyl-1,3-benzothiazol-2-amine] showed a pIC50 not below 7.00.

In the case of `CN1CCC2(CC1)CN(c1nc3nnc(-c4ccc(-c5c[nH]nc5F)cc4O)cc3s1)C2` [Compound 392, 5-(3-fluoro-1H-pyrazol-4-yl)-2-[6-(7-methyl-2,7-diazaspiro[3.5]nonan-2-yl)[1,3]thiazolo[4,5-c]pyridazin-3-yl]phenol], the pIC50 is 5.52 to 6.00.

`Cc1cn2cc(-c3cc4sc(N(C)C5CC6(C)CCC(C)(C5)N6)nc4cn3)cc(C#N)c2n1` [Compound 285, 6-(2-{[(1R,3s,5S)-1,5-dimethyl-8-azabicyclo[3.2.1]octan-3-yl](methyl)amino}[1,3]thiazolo[4,5-c]pyridin-6-yl)-2-methylimidazo[1,2-a]pyridine-8-carbonitrile]: the pIC50 was not below 7.00.

“5-{2-[(1,5-dimethyl-8-azabicyclo[3.2.1]oct-3-yl)(methyl)amino][1,3]thiazolo[5,4-d]pyrimidin-5-yl)-2-methyl-2H-indazole-7-carbonitrile [Compound 254]” gave a pIC50 not below 7.00.

Molecule `Cc1cn2cc(-c3cc4sc(NC5CC(C)(C)NC(C)(C)C5)nc4cn3)cc(F)c2n1` [Compound 234, 6-(8-fluoro-2-methylimidazo[1,2-a]pyridin-6-yl)-N-(2,2,6,6-tetramethylpiperidin-4-yl)[1,3]thiazolo[4,5-c]pyridin-2-amine] showed a pIC50 not below 7.00.

`Cc1cn2cc(-c3ccc4nc(C5CCNCC5)sc4c3)ccc2n1` [Compound 82, 6-(2-methylimidazo[1,2-a]pyridin-6-yl)-2-(piperidin-4-yl)-1,3-benzothiazole] had a pIC50 of 6.30 to 7.00.

On to `Oc1cc(-c2cn[nH]c2)ccc1-c1cc2sc(N3CCNCC3)nc2nn1` [Compound 334, 2-[6-(piperazin-1-yl)[1,3]thiazolo[4,5-c]pyridazin-3-yl]-5-(1H-pyrazol-4-yl)phenol], for which the pIC50 is 6.30 to 7.00.

In the case of `CN(c1nc2nnc(-c3ccc(-c4cn[nH]c4)cc3O)cc2s1)[C@H]1CCNC[C@H]1F` [Compound 358, 2-(6-{[(3R,4S)-3-fluoropiperidin-4-yl](methyl)amino}[1,3]thiazolo[4,5-c]pyridazin-3-yl)-5-(1H-pyrazol-4-yl)phenol], the pIC50 is 6.00 to 6.30.

In the case of `Cn1cc2cc(-c3nc4ccc(C5=CCNCC5)cc4s3)ccc2n1` [Compound 4, 2-(2-methyl-2H-indazol-5-yl)-6-(1,2,3,6-tetrahydropyridin-4-yl)-1,3-benzothiazole], the pIC50 was 6.30 to 7.00.

Turning to `Cn1cc2cc(-c3cc(Cl)c4nc(C5=CCNCC5)sc4c3)cc(F)c2n1` [Compound 153, 4-chloro-6-(7-fluoro-2-methyl-2H-indazol-5-yl)-2-(1,2,3,6-tetrahydropyridin-4-yl)-1,3-benzothiazole], the pIC50 is 5.52 to 6.00.

As to `Cc1cn2cc(-c3cc4sc(N[C@@H]5C[C@H]6CC[C@@H](C5)N6C)nc4cn3)cc(F)c2n1` [Compound 247, 6-(8-fluoro-2-methylimidazo[1,2-a]pyridin-6-yl)-N-[(3-exo)-8-methyl-8-azabicyclo[3.2.1]oct-3-yl][1,3]thiazolo[4,5-c]pyridin-2-amine], the pIC50 is 6.30 to 7.00.

With `CN1CCC(N(C)c2nc3nnc(-c4ccc(-c5c[nH]nc5F)cc4O)cc3s2)CC1` [Compound 332, 5-(3-fluoro-1H-pyrazol-4-yl)-2-{6-[methyl(1-methylpiperidin-4-yl)amino][1,3]thiazolo[4,5-c]pyridazin-3-yl}phenol], the pIC50 was not below 7.00.

In turn, `Cc1cn2cc(-c3cc4sc(N(C)C5CCN(C)C(C)C5)nc4cn3)cc(C#N)c2n1` (centres unmarked) [Compound 379, 6-{2-[(1,2-dimethylpiperidin-4-yl)(methyl)amino][1,3]thiazolo[4,5-c]pyridin-6-yl}-2-methylimidazo[1,2-a]pyridine-8-carbonitrile] gave a pIC50 not below 7.00.

The molecule `CN(c1nc2cnc(-c3cc(C#N)c4nn(C)cc4c3)cc2s1)C1CC2CCCC(C1)N2` (centres unmarked) [Compound 252, 5-{2-[9-azabicyclo[3.3.1]non-3-yl(methyl)amino][1,3]thiazolo[4,5-c]pyridin-6-yl}-2-methyl-2H-indazole-7-carbonitrile] had a negative-log IC50 (pIC50) not below 7.00.

Regarding `Cc1cn2cc(-c3ncc4nc(N(C)C5CC6(C)CCC(C)(C5)N6)sc4n3)cc(F)c2n1` [Compound 284, N-[(1R,3s,5S)-1,5-dimethyl-8-azabicyclo[3.2.1]octan-3-yl]-5-(8-fluoro-2-methylimidazo[1,2-a]pyridin-6-yl)-N-methyl[1,3]thiazolo[5,4-d]pyrimidin-2-amine], the pIC50 was not below 7.00.

The record behind these values is patent US12139499B2, “Heteroaryl compounds for treating Huntington's disease” (PTC THERAPEUTICS, INC., priority 2018, dated 2024).
